Laboratory results published in publication PMC10722499, “Consumption of Roasted Coffee Leads to Conjugated Metabolites of Atractyligenin in Human Plasma” (Journal of Agricultural and Food Chemistry, 2023).
Where two headings read alike, the source gives them in different places.

Columns and labels:
[1] = Human coffee intervention study: plasma concentrations after roasted coffee brew by UPLC-MS/MS; type: in vivo; conditions: for concentration at 1 h / concentration at 4 h / concentration at 10 h / concentration at 0 h: human, plasma, 200 mL; for concentration at 1 h / concentration at 4 h / concentration at 10 h / Cmax / concentration at 0 h: oral; for Cmax / time of estimated cmax: human plasma after coffee brew (200 mL); for Cmax: n = 10, mean ± SD, read-out: estimated cmax in plasma; for time of estimated cmax: sampling only at 0, 1, 4, 10 h; for plasma level at baseline / concentration at 0 h: 0 h; for plasma level at baseline: before coffee intake; for samples above the LLOQ / study participants in whom the conjugate appeared within 10 h after coffee: n = 10
Procedure: The study included ten volunteers (5 females, 5 males) (age: 28.3 ± 2.3 years; BMI: 21.89 ± 2.22 kg/m^2). The intervention study took place from November 5, 2021, to February 17, 2022, in the core facility human studies of the ZIEL Institute for Food and Health of the Technical University of Munich. The study was performed in agreement with the Declaration of Helsinki, and all participants gave written informed consent. The study was approved by the Ethics Committee of the Technical University of Munich (5798/13 S-SR) and registered in the German Register of Clinical Studies (DRKS00005083).
The study participants underwent a dietary protocol that excluded all forms of coffee consumption. Additionally, chocolate, black/green/white, mate tea, cola, energy drinks, and beauty products containing caffeine (e.g., shampoos, creams) were prohibited 1 week before the test day. Furthermore, the study participants received a standardized meal the evening before the test day. The meal was composed of pasta, margarine, and salt, and the amount of energy was calculated based on the participant’s basal energy demand. On the morning of the test day, the participants were in a fastened state and received water (control samples) or coffee brew (coffee intervention) as breakfast. Blood was sampled before coffee intake (0 h) and at defined time points (1, 4, and 10 h) after coffee intake. 6 h after the coffee intake, the participants received lunch, the same standardized meal as the previous dinner. The administered coffee was prepared from a coffee capsule (Nespresso, ROMA) with 100 mL water. The administered volume of the coffee brew was 200 mL. Based on the coffee powder per capsule ([…]), the concentrations of 2 (2.8 μmol/g) and 3 (1.1 μmol/g), respectively,[10] and an estimated extraction rate of 100%, the total ingested amounts were 33.6 μmol (2) and 13.2 μmol (3).
In an Eppendorf tube (1.5 mL), aliquots (50 μL each) of the calibration standard, sample, or QC, respectively, were mixed with the IS solution (1000 nM in ethanol, 50 μL) and acetonitrile/ethanol (9 + 1, v + v, 50 μL) was added. After vortexing, suspensions were cleared by centrifugation (12,000 rpm, 4 °C, 10 min), and the supernatant (∼100 μL) was transferred to an HPLC vial with 200 μL insert for analysis (5 μL injection).
The UPLC–MS/MS system consisted of a Shimadzu Nexera X2 UPLC system (Shimadzu, Duisburg, Germany) hyphenated to a QTrap 5500 MS/MS system (Sciex, Darmstadt, Germany) operating in negative electrospray (ESI^–) mode with the following ion source parameters: ion spray voltage: −4500 V; source temperature: 500 °C; nebulizer gas: 55 psi; heater gas: 65 psi; and curtain gas: 35 psi. The MS/MS parameters, including the collision cell entrance potential (CEP), declustering potential (DP), collision energy (CE), and cell exit potential (CXP), were tuned for each compound and mass transition and are summarized in Supporting Table S3. The dwell time for each compound was 30 ms, and the total cycle time was 0.75 s. Chromatographic separation was achieved on a C18 column (Kinetex C18, 100 mm × 2.1 mm, 1.7 μm, Phenomenex, Aschaffenburg, Germany) at a flow rate of 500 μL/min flow rate. Eluent A was 0.1% formic acid in water, and eluent B was 0.1% formic acid in acetonitrile. B was kept at 3% (1 min), increased to 25% (in 3 min), 90% (in 2 min, 1 min isocratic), and 3% (0.5 min, 2.5 min isocratic). The total time of the analysis was 10 min. The column effluent was introduced from the waste to the MS/MS system between 3 and 7 min.
We applied this method to human plasma samples from a coffee intervention study to investigate the appearance of coffee compounds 1–3 and metabolites M1–M3. Ten participants underwent a washout period (7 days) and then consumed one dose of […]. Blood samples were taken at baseline (0 h) and 1, 4, and 10 h after the intervention. […]

[2] = design: method as in PMID 36442242; conditions: coffee drinkers' urine, four of six samples, qualitative; cited from earlier work
[3] = both sexes, 1 h after coffee brew (200 mL), human plasma, values above LLOQ, read-out: plasma concentration, mean ± SD
[4] = both sexes, 4 h after coffee brew (200 mL), human plasma, values above LLOQ, read-out: plasma concentration, mean ± SD
[5] = both sexes, 10 h after coffee brew (200 mL), human plasma, values above LLOQ, read-out: plasma concentration, mean ± SD
[6] = participant ayia, 1 h after coffee, read-out: plasma concentration, individual
[7] = participant ayia, 10 h after coffee, read-out: plasma concentration, individual
[8] = participant cbdu, 1 h after coffee, b = below LLOQ, read-out: plasma concentration, individual
[9] = participant cbdu, 10 h after coffee, read-out: plasma concentration, individual
[10] = participant eogo, 1 h after coffee, b = below LLOQ, read-out: plasma concentration, individual
[11] = participant eogo, 10 h after coffee, b = below LLOQ, read-out: plasma concentration, individual
[12] = participant ggot, 1 h after coffee, read-out: plasma concentration, individual
[13] = participant ggot, 4 h after coffee, b = below LLOQ, read-out: plasma concentration, individual
[14] = participant ggot, 10 h after coffee, b = below LLOQ, read-out: plasma concentration, individual
[15] = participant imhz, 10 h after coffee, read-out: plasma concentration, individual
[16] = participant mgjj, 10 h after coffee, read-out: plasma concentration, individual
[17] = participant rrmk, 4 h after coffee, b = below LLOQ, read-out: plasma concentration, individual
[18] = participant rrmk, 10 h after coffee, read-out: plasma concentration, individual
[19] = participant wbqj, 1 h after coffee, b = below LLOQ, read-out: plasma concentration, individual
[20] = participant wbqj, 4 h after coffee, b = below LLOQ, read-out: plasma concentration, individual
[21] = participant wbqj, 10 h after coffee, b = below LLOQ, read-out: plasma concentration, individual
[22] = participant wbvs, 1 h after coffee, read-out: plasma concentration, individual
[23] = participant wbvs, 4 h after coffee, read-out: plasma concentration, individual
[24] = participant wbvs, 10 h after coffee, read-out: plasma concentration, individual
[25] = participant xrwz, 10 h after coffee, b = below LLOQ, read-out: plasma concentration, individual

| concentration at 1 h [1, 3] [nM] | concentration at 10 h [1, 5] [nM] | Cmax ([1]; both sexes) [nM] | time of estimated cmax [1] [h] | concentration at 10 h [1, 9] [nM] | concentration at 10 h [1, 11] [nM] | concentration at 10 h [1, 14] [nM] | concentration at 10 h [1, 15] [nM] | concentration at 10 h [1, 16] [nM] | concentration at 10 h [1, 21] [nM] | concentration at 10 h [1, 24] [nM] | Compound | concentration at 4 h [1, 4] [nM] | concentration at 1 h [1, 6] [nM] | concentration at 10 h [1, 7] [nM] | concentration at 1 h [1, 8] [nM] | concentration at 1 h [1, 10] [nM] | concentration at 1 h [1, 12] [nM] | concentration at 4 h [1, 13] [nM] | concentration at 4 h [1, 17] [nM] | concentration at 10 h [1, 18] [nM] | also measured |
| --- | --- | --- | --- | --- | --- | --- | --- | --- | --- | --- | --- | --- | --- | --- | --- | --- | --- | --- | --- | --- | --- |
| – | – | – | – | – | – | – | – | – | – | – | CC1C(=O)C23CCC4C(C(=O)O)CC(O)CC4(C)C2CCC1C3 (stereo not drawn) [compound 5, 2β-hydroxy-15-oxoatractylan-4α-carboxylic acid] | – | – | – | – | – | – | – | – | – | appearance in plasma after coffee ([1]; all samples 1, 4, 10 h after coffee brew (200 mL), human plasma): did not appear in the plasma |
| 0.63 ± 0.14 | 2.5 ± 1.9 | 2.5 ± 1.9 | 10 | 0.9 | 3.1 | 0.6 | 1.1 | 0.8 | 2.8 | 5.1 | CC1C(=O)C23CCC4C(C(=O)OC5OC(C(=O)O)C(O)C(O)C5O)CC(O)CC4(C)C2CCC1C3 [M2, 2β-hydroxy-15-oxoatractylan-4α-carboxy-19-O-β-D-glucuronide] | – | 0.5 | 5.6 | 0.1 | – | 0.7 | – | – | – | plasma level at baseline ([1]; human plasma): below the LLOQ; plasma concentration, mean ± SD ([1]; 1 h after coffee brew (200 mL), human plasma, values above LLOQ): 0.6 ± 0.1 nM; samples above the LLOQ ([1]; 10 h after coffee): 80%; study participants in whom the conjugate appeared within 10 h after coffee ([1]; human plasma): 80%; concentration at 4 h ([1]; participant ayia, 4 h after coffee, b = below LLOQ, read-out: plasma concentration, individual): 0.1 nM; concentration at 0 h ([1]; participant rrmk, b = below LLOQ, read-out: plasma concentration, individual): 0.1 nM; concentration at 1 h [1, 19]: 0.01 nM; urine samples in which detected [2]: 67% |
| 1.7 | 55 ± 57.7 | 55 ± 57.7 | 10 | 11.6 | 40.8 | 180 | 9.3 | 24.3 | 64.1 | 111 | CC1C(=O)C23CCC4C(C(=O)O)CC(OC5OC(C(=O)O)C(O)C(O)C5O)CC4(C)C2CCC1C3 [M3, 2β-hydroxy-15-oxoatractylan-4α-carboxylic acid-2-O-β-D-glucuronide] | 1.3 ± 1.1 | – | – | – | 0.3 | – | 2.9 | 0.7 | 50.6 | plasma level at baseline ([1]; human plasma): below the LLOQ; plasma concentration in samples from two individuals ([1]; 10 h after coffee, comparatively high individual values): 180.0 nM; samples above the LLOQ ([1]; 10 h after coffee): 90%; study participants in whom the conjugate appeared within 10 h after coffee ([1]; human plasma): 90%; concentration at 10 h ([1]; 10 h after coffee, comparatively high individual values, read-out: plasma concentration in samples from two individuals): 111 nM; concentration at 0 h ([1]; participant eogo, b = below LLOQ, read-out: plasma concentration, individual): 0.4 nM; concentration at 4 h ([1]; participant eogo, 4 h after coffee, b = below LLOQ, read-out: plasma concentration, individual): 0.1 nM; concentration at 4 h [1, 20]: 0.9 nM; concentration at 0 h ([1]; participant wbvs, b = below LLOQ, read-out: plasma concentration, individual): 0.9 nM; concentration at 1 h [1, 22]: 1.7 nM; concentration at 4 h [1, 23]: 1.9 nM; concentration at 10 h [1, 25]: 4.1 nM; urine samples in which detected [2]: 67% |

| Compound | concentration at 1 h [1, 3] [nM] | concentration at 10 h [1, 5] [nM] | Cmax ([1]; both sexes) [nM] | time of estimated cmax [1] [h] | concentration at 10 h [1, 9] [nM] | concentration at 10 h [1, 11] [nM] | concentration at 10 h [1, 14] [nM] | concentration at 10 h [1, 15] [nM] | concentration at 10 h [1, 16] [nM] | concentration at 10 h [1, 21] [nM] | concentration at 10 h [1, 24] [nM] | concentration at 4 h [1, 4] [nM] | concentration at 1 h [1, 6] [nM] | concentration at 10 h [1, 7] [nM] | concentration at 1 h [1, 8] [nM] | concentration at 1 h [1, 10] [nM] | concentration at 1 h [1, 12] [nM] | concentration at 4 h [1, 13] [nM] | concentration at 4 h [1, 17] [nM] | concentration at 10 h [1, 18] [nM] | also measured |
| --- | --- | --- | --- | --- | --- | --- | --- | --- | --- | --- | --- | --- | --- | --- | --- | --- | --- | --- | --- | --- | --- |
| C=C1[C@@H]2CC[C@@H]3[C@@](CCC4[C@H](C(=O)O)C[C@@H](O)C[C@]43C)(C2)[C@@H]1O (some centres unmarked) [compound 1, atractyligenin] | 41.9 ± 12.5 | 23.3 ± 10.5 | 41.9 ± 12.5 | 1 | 19 | 8 | 2.3 | 43.7 | 16.5 | 4.7 | 17 | 40.1 ± 22.9 | 36.5 | 25.6 | 31.6 | 43.4 | 49.2 | 13.8 | 68.1 | 17.9 | drop of plasma concentration until 10 h ([1]; from the level between 1 and 4 h to 10 h after coffee): ~45%; concentration at 1 h ([1]; participant imhz, 1 h after coffee, read-out: plasma concentration, individual): 70.5 nM; concentration at 4 h ([1]; participant imhz, 4 h after coffee, read-out: plasma concentration, individual): 19.6 nM; concentration at 1 h ([1]; participant mgjj, 1 h after coffee, read-out: plasma concentration, individual): 34.7 nM; concentration at 4 h ([1]; participant mgjj, 4 h after coffee, read-out: plasma concentration, individual): 17.7 nM; concentration at 1 h ([1]; participant rrmk, 1 h after coffee, read-out: plasma concentration, individual): 42.7 nM; concentration at 1 h [1, 19]: 49.1 nM; concentration at 4 h [1, 20]: 59.7 nM; concentration at 1 h [1, 22]: 36.1 nM; concentration at 4 h [1, 23]: 35.2 nM; concentration at 1 h ([1]; participant xrwz, 1 h after coffee, read-out: plasma concentration, individual): 26 nM; concentration at 10 h [1, 25]: 10.4 nM; participants in whom plasma concentration increased between 4 and 10 h ([1]; individual plots, after first maximum at 1 h): 60% |
